The supplement of paper PMC10307832

Assays:
Assay in all cases: relative viability (nuclei count vs DMSO), 5 days (fraction); higher = more cells survive
[1] = compound: C1=CC=C(C(=C1)C2=CC=C(C=C2)C3=CSC4=C3C(=C(C(=O)N4)C#N)O)O + CCNC(=O)c1noc(-c2cc(C(C)C)c(O)cc2O)c1-c1ccc(CN2CCOCC2)cc1 [Luminespib] (partner 0.01 µM)
Method in brief: (§1)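 Nuclei were stained with Hoechst during a one-step fixation (final 0.05% Triton X-100, 1% formaldehyde, 1 ug/ml Hoechst) carried out 5 days after dosing, then counted on 4× images. The cells, lung cancer lines in 1536-well plates, had been dosed by pin tool the day after seeding with one drug alone or a fixed anchor-drug dose plus five library-drug doses (not always all listed) in √10 steps. Relative viability is the nuclei count in treated wells divided by that in vehicle wells, and each value is the median of duplicate plates.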

[2] = compound: C1=CC=C(C(=C1)C2=CC=C(C=C2)C3=CSC4=C3C(=C(C(=O)N4)C#N)O)O + CS(=O)(=O)CCNCc1ccc(-c2ccc3ncnc(Nc4ccc(OCc5cccc(F)c5)c(Cl)c4)c3c2)o1 [Lapatinib] (partner 2 µM)
Method in brief: as §1

TGX 221 + Navitoclax = compound: CC1=CN2C(=O)C=C(N=C2C(=C1)C(C)NC3=CC=CC=C3)N4CCOCC4 [TGX 221] + CC1(C)CCC(c2ccc(Cl)cc2)=C(CN2CCN(c3ccc(C(=O)NS(=O)(=O)c4ccc(N[C@H](CCN5CCOCC5)CSc5ccccc5)c(S(=O)(=O)C(F)(F)F)c4)cc3)CC2)C1 [Navitoclax] (partner 0.5 µM)
Method in brief: as §1

Ricolinostat + OSI-027 = compound: O=C(CCCCCCNC(=O)c1cnc(N(c2ccccc2)c2ccccc2)nc1)NO [Ricolinostat] + COc1cccc2cc(-c3nc([C@H]4CC[C@H](C(=O)O)CC4)n4ncnc(N)c34)[nH]c12 [OSI-027] (partner 0.5 µM)
Method in brief: as §1

| Cell Line | relative viability ([1]; first compound 0.08 µM) | relative viability ([1]; first compound 0.253 µM) | relative viability ([1]; first compound 0.8 µM) | relative viability ([1]; first compound 2.53 µM) | relative viability ([1]; first compound 8 µM) | relative viability ([2]; first compound 0.08 µM) | relative viability ([2]; first compound 0.253 µM) | relative viability ([2]; first compound 0.8 µM) | relative viability ([2]; first compound 2.53 µM) | relative viability ([2]; first compound 8 µM) | relative viability (TGX 221 + Navitoclax; first compound 0.253 µM) | relative viability (TGX 221 + Navitoclax; first compound 0.8 µM) | relative viability (TGX 221 + Navitoclax; first compound 2.53 µM) | relative viability (TGX 221 + Navitoclax; first compound 8 µM) | relative viability (Ricolinostat + OSI-027; first compound 0.08 µM) | relative viability (Ricolinostat + OSI-027; first compound 0.253 µM) | relative viability (Ricolinostat + OSI-027; first compound 0.8 µM) | relative viability (Ricolinostat + OSI-027; first compound 2.53 µM) | relative viability (TGX 221 + Navitoclax; first compound 0.08 µM) |
| --- | --- | --- | --- | --- | --- | --- | --- | --- | --- | --- | --- | --- | --- | --- | --- | --- | --- | --- | --- |
| 201T | 0.873 | 0.981 | 1.03 | 1.09 | 1.08 | 0.979 | 1.03 | 1.01 | 0.849 | 1.12 | 1.26 | 1.21 | 1.19 | 1.15 | 0.631 | 0.707 | 0.7 | 0.92 | – |
| A549 | – | – | – | – | – | 1.01 | 0.912 | 1.06 | 0.971 | 0.918 | 1.17 | 1.18 | 1.18 | 1.11 | – | – | – | – | 1.29 |
| A-427 | 0.735 | 1.37 | 0.916 | 1.06 | 0.927 | 0.917 | 1.06 | 1.2 | 1.03 | 1.2 | 0.976 | 0.949 | 0.935 | 0.803 | – | 0.435 | 0.414 | 0.351 | 1.05 |
| ABC-1 | 0.509 | 0.768 | 0.78 | 0.481 | 0.513 | 1.52 | 1.49 | 1.42 | 1.13 | 0.997 | – | – | – | – | 0.425 | 0.518 | 0.482 | 0.292 | – |
| BEN | 0.354 | 0.345 | 0.305 | 0.71 | 0.331 | 0.577 | 0.663 | 0.716 | 0.87 | 0.645 | 0.0617 | 0.0682 | 0.0659 | 0.0557 | 0.287 | 0.344 | 0.324 | 0.307 | 0.0671 |
| CAL-12T | 0.296 | 0.565 | 0.362 | 0.585 | 0.264 | – | 0.848 | 0.604 | 0.617 | 0.599 | 1.2 | 1.36 | 1.23 | 1.07 | 0.412 | 0.717 | 0.617 | 0.715 | 1.06 |
| COR-L23 | 0.524 | 0.745 | 0.714 | 0.773 | 0.52 | 0.772 | 1.22 | 0.834 | 1.11 | 0.712 | 1.02 | 0.963 | 0.954 | 0.997 | 0.595 | 0.756 | 0.789 | 0.409 | 1.01 |
| COR-L 105 | 0.881 | 0.821 | 0.722 | 0.625 | 0.752 | 0.4 | 0.353 | 0.34 | 0.344 | 0.345 | 0.613 | 0.842 | 0.799 | 0.558 | – | 0.641 | 0.72 | 0.731 | 0.97 |
| Calu-6 | – | – | – | – | – | 1.03 | 1.03 | 1.21 | 1.27 | 1.03 | 0.813 | 0.872 | 0.753 | 0.733 | – | – | – | – | 0.853 |
| ChaGo-K-1 | 0.706 | 0.628 | 0.684 | 0.597 | 0.604 | – | – | – | – | – | 1.02 | 0.987 | 0.737 | 1.36 | 0.656 | 0.606 | 0.539 | 0.471 | 0.957 |
| EBC-1 | – | – | – | – | – | 0.265 | 0.226 | 0.223 | 0.209 | 0.173 | 0.408 | 0.428 | 0.277 | 0.258 | – | – | – | – | 0.43 |
| EKVX | 1.14 | 0.977 | 0.863 | 0.912 | 0.726 | 0.225 | 0.208 | 0.201 | 0.195 | 0.211 | 0.869 | 0.866 | 0.908 | 0.758 | 0.6 | 0.714 | – | 0.677 | 0.926 |
| EMC-BAC-2 | 0.953 | 1.25 | 1.25 | 1.26 | 1.18 | 0.76 | 1 | 0.917 | 0.894 | 0.812 | 1.1 | 1.13 | 1.11 | 1.05 | 0.353 | 0.363 | 0.343 | 0.271 | 1.16 |
| EPLC-272H | 0.279 | 0.282 | 0.247 | 0.223 | 0.282 | – | 0.924 | 0.849 | 0.897 | 1.01 | 1.17 | 1.19 | – | 1.29 | 0.256 | 0.305 | 0.273 | 0.263 | 1.1 |
| H3255 | 0.968 | 1.02 | 0.713 | 0.852 | 0.895 | 0.231 | 0.292 | 0.231 | 0.235 | 0.25 | 0.49 | 0.515 | 0.553 | 0.601 | 0.496 | 0.582 | 0.55 | 0.629 | 0.486 |
| HARA | 0.375 | 0.707 | 0.553 | 0.592 | 0.682 | – | 1.03 | 0.821 | 0.762 | 0.738 | 1.13 | 1.03 | 1.13 | 1.11 | 0.295 | 0.479 | 0.401 | 0.175 | 1.18 |
| HCC-15 | 0.277 | 0.289 | 0.297 | 0.38 | 0.3 | 0.702 | 0.918 | 0.897 | 0.962 | 0.783 | 0.642 | 0.579 | 0.67 | 0.642 | 0.501 | 0.64 | 0.624 | 0.592 | 0.745 |
| HCC-44 | – | 1.55 | 0.993 | 1.12 | 0.822 | 0.863 | 1.07 | 0.928 | 1.02 | 0.993 | 0.981 | 0.918 | 0.837 | 0.732 | 0.373 | 0.587 | 0.4 | 0.27 | 0.992 |
| HCC-78 | – | – | – | – | – | 0.575 | 0.935 | 0.899 | 0.781 | 0.809 | 0.665 | – | 0.457 | 0.487 | – | 0.372 | 0.341 | 0.395 | 0.654 |
| HCC-366 | – | – | – | – | – | 1.24 | 0.948 | 1.24 | 1.01 | 1.01 | 0.927 | 0.916 | 1.07 | 0.914 | 0.809 | 1.05 | 0.842 | 0.523 | 1.03 |
